Data published in patent US20220153732A1, “PROTEIN SECRETION INHIBITORS” (KEZAR LIFE SCIENCES, priority 2019, published 2022).

Key:
Format in all cases: cell-based
[1] = test system: HER3-ss+4aa/Gaussia Luciferase; experiment: Dox-Induced Her3-ss-Gluc Assay; settings: 24 hr doxycycline induction, 293FRT/TO cells, Gaussia luciferase signal; read-out: 24 hr Dox Inducible Her3(ss + 4)Gluc 293FRT/TO: Mean IC50
Summary of the method: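 Stable T-REx cell line carrying a doxycycline-regulated HER3-ss+4aa/Gaussia luciferase insert, plated the day before assay. Compound dilutions in DMSO/media with doxycycline added, then incubated at 37° C., 5% CO2. Stereoisomer mixtures tested where stereochemistry is not drawn.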

[2] = test system: human multiple myeloma cell line NCI-H929; experiment: H929 Cell Viability Assay; settings: 48 hr, NCI-H929 cells, Celltiter-Glo, read-out: 48 hr H929 Viability Celltiter-Glo: Mean EC50
Method: Plates were incubated at 37° C., 5% CO2 for 48 hours. After 48 hours, Celltiter-Glo® (Promega) was added to each well and luciferase signal was quantified using Tecan Infinite M1000 Pro for cell viability determination.
For chemical structures that include one or more stereoisomers, but are illustrated without indicating stereochemistry, the assay data refers to a mixture of stereoisomers.

[3] = test system: PD1-ss+10aa/Gaussia Luciferase; experiment: Dox-Induced PD1-ss-Gluc Assay; settings: 24 hr doxycycline induction, 293FRT/TO cells, Gaussia luciferase signal; read-out: 24 hr Dox Inducible PD1ssGluc 293FRT/TO: Mean IC50
Summary of the method: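 Stable cell line carrying PD1-ss+10aa/Gaussia luciferase cDNA under T-REx (doxycycline-inducible) control, plated the day before assay. Compound dilutions in DMSO/media containing doxycycline added and incubated at 37° C, 5% CO2. Undefined stereocentres: data refer to stereoisomer mixtures.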

[4] = test system: IL-2-FL/Gaussia Luciferase; experiment: Dox Induced IL2-FL-Gluc Assay; settings: 24 hr doxycycline induction, 293FRT/TO cells, Gaussia luciferase signal; read-out: 24 hr Dox Inducible IL2FLGIuc 293FRT/TO: Mean IC50
Summary of the method: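 Stable T-REx cell line expressing doxycycline-inducible IL-2-FL/Gaussia luciferase cDNA, plated the day before assay. Compound dilutions in DMSO/media containing doxycycline added and incubated at 37° C., 5% CO2. Unspecified stereochemistry means data refer to a stereoisomer mixture.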

[5] = test system: TNFα-FL/Gaussia Luciferase; experiment: Dox Induced TNFα-FL-Gluc Assay; settings: 24 hr doxycycline induction, 293FRT/TO cells, Gaussia luciferase signal; read-out: 24 hr Dox Inducible TNFaFLGluc 293FRT/TO: Mean IC50
Summary of the method: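 A stable T-REx cell line carrying doxycycline-inducible TNFα-FL/Gaussia luciferase was plated the day before assay. Compound dilutions in DMSO/media containing doxycycline were then added and incubated at 37° C, 5% CO2.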

[6] = test system: human multiple myeloma cell line U266B1; experiment: U266 Cell Viability Assay; settings: U-266, 48 hr, U266B1 cells, Celltiter-Glo, read-out: 48 hr U266 Viability Celltiter-Glo: Mean EC50
Summary of the method: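 U266B1 myeloma cells treated with compound dilutions in DMSO/media for 48 h at 37 °C, 5% CO2. Viability read by CellTiter-Glo luminescence. Stereochemically undefined structures were tested as stereoisomer mixtures.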

Row | IC50 [1] [nM] | EC50 [2] [nM] | IC50 [3] [nM] | IC50 [4] [nM] | IC50 [5] [nM] | EC50 [6] [nM] | SMILES
1 | 14900 | 13400 | 2990 | 8600 | 21500 | 19700 | O=C(Nc1nc(/C=C/c2ccoc2)cs1)c1cccn1CCCc1ccncc1 [Compound A232, N-(4-(2-(furan-3-yl)vinyl)thiazol-2-yl)-1-(3-(pyridin-4-yl)propyl)-1H-pyrrole-2-carboxamide]
2 | 304 | 5790 | 56 | 633 | 2220 | > 25000 | O=C(Nc1nc(/C=C/c2ccc(N3CCCCC3)cc2)cs1)c1cccn1Cc1ccncc1 [Compound A233]
3 | 216 | 4490 | 63 | 341 | > 25000 | > 25000 | O=C(Nc1nc(/C=C/c2ccc3c(c2)OCO3)cs1)c1cccn1Cc1ccncc1 [Compound A234, N-(4-(2-(benzo[d][1,3]dioxo1-5-yl)vinyl)thiazol-2-yl)-1-(pyridin-4-ylmethyl)-1H-pyrrole-2-carboxamide]
4 | 145 | 4150 | 63 | 237 | > 25000 | > 25000 | O=C(Nc1nc(/C=C/c2ccc3c(c2)OC(F)(F)O3)cs1)c1cccn1Cc1ccncc1 [Compound A235, N-(4-(2-(2,2-difluorobenzo[d][1,3]dioxo1-5-yl)vinyl)thiazol-2-yl)-1-(pyridin-4-ylmethyl)-1H-pyrrole-2-carboxamide]
5 | 535 | 7700 | 87 | 1010 | 3240 | > 25000 | CC(C)Oc1ccc(/C=C/c2csc(NC(=O)c3cccn3Cc3ccncc3)n2)cc1 [Compound A236, N-(4-(4-isopropoxystyryl)thiazol-2-yl)-1-(pyridin-4-ylmethyl)-1H-pyrrole-2-carboxamide]
6 | 1120 | 18700 | 288 | 1870 | > 25000 | > 25000 | O=C(Nc1nc(/C=C/c2ccc3ncccc3c2)cs1)c1cccn1Cc1ccncc1 [Compound A237]
7 | 1570 | > 25000 | 643 | 1200 | 18300 | > 25000 | CC(C)OC(C)(C)c1csc(NC(=O)c2cccn2Cc2ccncc2Cl)n1 [Compound A238, 1-((3-chloropyridin-4-yl)methyl)-N-(4-(2-isopropoxypropan-2-yl)thiazol-2-yl)-1H-pyrrole-2-carboxamide]
8 | > 25000 | > 25000 | 1510 | > 25000 | > 25000 | > 25000 | CNC(=O)c1ccc(/C=C/c2csc(NC(=O)c3cccn3Cc3ccncc3)n2)cc1 [Compound A239]
9 | 271 | 11800 | 55 | 445 | 7790 | > 25000 | COc1ccc(/C=C/c2csc(NC(=O)c3cccn3Cc3ccncc3)n2)cc1F [Compound A240, N-(4-(3-fluoro-4-methoxystyryl)thiazol-2-yl)-1-(pyridin-4-ylmethyl)-1H-pyrrole-2-carboxamide]
10 | 179 | 8370 | 27 | 324 | 1320 | > 25000 | COc1ccc(/C=C/c2csc(NC(=O)c3cccn3Cc3ccncc3)n2)c(F)c1 [Compound A241, N-(4-(2-fluoro-4-methoxystyryl)thiazol-2-yl)-1-(pyridin-4-ylmethyl)-1H-pyrrole-2-carboxamide]
11 | 596 | > 25000 | 281 | > 25000 | > 25000 | > 25000 | O=C(Nc1nc(C2=Cc3ccccc3C2)cs1)c1cccn1Cc1ccncc1 [Compound A242, N-(4-(1H-inden-2-yl)thiazol-2-yl)-1-(pyridin-4-ylmethyl)-1H-pyrrole-2-carboxamide]
